Measurements: patent US9901646B2, “Methods for induction of antigen-specific immune tolerance” (École Polytechnique Fédérale de Lausanne (EPFL), priority 2010, dated 2018)
Where no end group is shown, it is not given here. 8‑arm PEG = 8-arm polyethylene glycol (PEG) dendrimer, conjugated via pyridyldisulfide groups to cysteine thiols

Tests used:
[1] = system: human erythrocytes; test: Erythrocyte binding of APC-peptide conjugates by flow cytometry; conditions: 1 μM APC-peptide conjugate, 37 C, 45 min
Experimental: Peptides were ordered and custom-synthesized via standard fmoc solid-phase peptide synthesis from PolyPeptide Group (Strasbourg, France). 10 equivalents of peptide dissolved in 3 M guanidine-HCl were added to 2 mg/mL maleimide-activated APC (InnovaBiosciences, Cambridge, UK) in PBS. Following a 4 h incubation at 4° C., the reaction was desalted on a 2 mL ZEBA Desalting Column (Thermo Scientific) and stored at 4° C.
Freshly isolated human blood was dissolved 100-fold into PBS supplemented with 20 mg/mL BSA. 5×10^5 erythrocytes were added to 150 μL of 1 μM APC-peptide conjugate and incubated at 37 C for 45 min. Cells were washed extensively in PBS+20 mg/mL BSA, and analyzed for APC fluorescence on a CyAn ADP Flow cytometer (Beckman Coulter).

[2] = system: human erythrocytes (type A and B); test: Binding of bacteria displaying peptide to cells, flow cytometry; conditions: peptide displayed on bacteria, 1 h at 4° C.
Experimental: Method: To characterize specificity, individual sequenced clones were analyzed using cytometry for binding toward human erythrocytes (type A and B), mouse erythrocytes, HEK293T cells and HUVECs. For binding assays, 10^6 mammalian cells were scanned on an AccuriA6 after co-incubation with 5×10^7 bacteria for 1 h at 4° C. followed by three washes in HFS (5% HSA, 2% FBS in PBS). The percentage of cells with green bacteria bound was calculated using FLOWJO Software.

[3] = target: T1, glycophorin-A (GYPA) (Mus musculus, UniProt P14220); test: Affinity pull-down with biotinylated ERY1 peptide and photoactivatable crosslinker, Western blot; type: binding; conditions: whole erythrocytes, UV crosslinking, streptavidin and anti-GYPA Western blot
T1 construct: GYPA is naturally expressed and presented as part of a complex comprised of several membrane and cytoskeletal proteins; endogenous in cells; host or cells: whole mouse erythrocytes
Experimental: Method: The ERY1 (H2N-WMVLPWLPGTLDGGSGCRG-CONH2) (SEQ ID NO:19) and mismatch (H2N-PLLTVGMDLWPWGGSGCRG-CONH2) (SEQ ID NO:20) peptides were synthesized using standard solid-phase f-moc chemistry on TGR resin. The peptide was cleaved from the resin in 95% tri-fluoroacetic acid, 2.5% ethanedithiol, 2.5% water, and precipitated in ice-cold diethyl ether. Purification was conducted on a Waters preparative HPLC-MS using a C18 reverse phase column.
In brief, peptides were solubilized in PBS/DMF and reacted with 1.05 equivalents of Mts-atf-biotin overnight at 4° C. Following clarification of the reaction by centrifugation, biotinylated peptide was incubated with erythrocytes at in PBSA-50 for 1 h at 37° C., cells were washed twice in fresh PBS, and were UV irradiated at 365 nm for 8 min at room temperature. Cells were lysed by sonication and the lysate was purified using streptavidin-coated magnetic beads (Invitrogen). The eluate was run on an SDS-PAGE and transferred to a PVDF membrane, and immunoblotted with streptavidin-HRP (R&D Systems) or anti-mouse GYPA.

[4] = system: circulating erythrocytes; test: 8-arm PEG constructs binding to circulating erythrocytes after intravenous injection, flow cytometry; type: in vivo, mouse; conditions: flow cytometry
Excerpt: FIG. 17 presents experimental results depicting erythrocyte cell-surface half-life of 8-arm PEG-ERY1 (filled circles) and 8-arm PEG-MIS (empty boxes), determined by flow cytometry.

[5] = mouse, in vivo, iv, 150 ug
Experimental: The Swiss Vaud Veterinary Office previously approved all animal procedures. While under anesthesia with ketamine/xylasine, the mouse tail was warmed in 42° C. water and 150 μg of protein was injected in a 100 μL volume directly into the tail vein. Care was taken to ensure mice were kept at 37° C. while under anesthesia. Blood was drawn by a small scalpel incision on the base of the tail, and diluted 10-fold in PBSA-5, 10 mM EDTA, and stored at −20° C. until further analysis. Blood samples were analyzed for MBP concentration by sandwich ELISA. In brief, monoclonal mouse anti-MBP was used as the capture antibody, polyclonal rabbit anti-MBP as the primary antibody, and goat anti-rabbit-HRP as the secondary antibody. The data were analyzed in PRISM4 using standard pharmacokinetic compartmental analysis, using Eq. 1 and Eq. 2 A=A0e^−Kt Equation 1: Standard one-compartment model
where A is the amount of free drug in the body at time t and A0 is the initial amount of drug at time zero. A=ae^−at+be^−βt Equation 2: Standard two-compartment model
where A is the amount of free drug in the central compartment at time t.

[6] = system: OT-I CD8+ T cells; test: OT-I tolerance and challenge model (Example 21); type: in vivo, mouse
Experimental: 3×10^5 CFSE-labeled OT-I CD8^+ T cells were injected into CD45.1^+ recipient mice as described above. 1 and 6 d following adoptive transfer, mice were intravenously administered 10 μg of ERY1-OVA or OVA, or an equimolar dose of TER119-SIINFEKL in 100 μL, saline into the tail vein. 15 d following adoptive transfer, mice were challenged with 5 μg OVA and 25 ng ultra-pure Escherichia coli LPS (InvivoGen) in 25 μL intradermally into each rear leg pad (Hock method, total dose of 10 μg OVA and 50 ng LPS). Mice were sacrificed 4 d following challenge, and spleen and draining lymph node cells were isolated for restimulation. For flow cytometry analysis of intracellular cytokines, cells were restimulated in the presence of 1 mg/mL OVA or 1 μg/mL SIINFEKL peptide (Genscript) for 3 h. Brefeldin-A (Sigma, 5 μg/mL) was added and restimulation resumed for an additional 3 h prior to staining and flow cytometry analysis.
(§1) The following anti-mouse antibodies were used for flow cytometry: CD1d Pacific Blue, CD3E PerCP-Cy5.5, CD8a PE-Cy7, CD45.2 Pacific Blue, IFNγ-APC, CD8a APC-eF780, (all from eBioscience), in addition to fixable live/dead dye (Invitrogen), and annexin-V-Cy5 labeling kit (BioVision). Samples were analyzed on a CyAn ADP flow cytometer (Beckman Coulter). Cells were washed first with PBS, stained for 20 min on ice with live/dead dye, blocked for 20 min on ice with 24G2 hybridoma medium, surface stained for 20 min on ice, fixed in 2% paraformaldehyde for 20 min ice, intracellularly stained in the presence of 0.5% saponin for 45 min on ice, followed by a final wash prior to analysis. For apoptosis staining, annexin-V-Cy5 was added 5 min prior to analysis.

[7] = system: OT-I CD8+ T cells; test: OT-I CD8+ T cell adoptive transfer, short-term proliferation study (Example 21); type: in vivo, mouse; conditions: intravenous
Experimental: CD8^+ T cells from OT-I (CD45.2^+) mouse spleens were isolated using a CD8 magnetic bead negative selection kit (Miltenyi Biotec) as per the manufacturer's instructions. Freshly isolated CD8^+ OT-I cells were resuspended in PBS and labeled with […] carboxyfluorescein succinimidyl ester (CFSE, Invitrogen) for 6 min at room temperature, and the reaction was quenched for 1 min with an equal volume of IMDM with 10% FBS (Gibco). Cells were washed, counted, and resuspended in pure IMDM prior to injection. 3×10^6 CFSE-labeled CD8^+ OT-I cells were injected intravenously into the tail vein of recipient CD45.1^+ mice. For short-term proliferation studies, 10 μg of ERY1-OVA or OVA, or an equimolar dose of TER119-SIINFEKL in 100 μL volume was injected 24 h following adoptive transfer. Splenocytes were harvested 5 d following antigen administration and stained for analysis by flow cytometry.
as §1

[8] = system: mouse erythrocytes; test: scFv binding to erythrocytes, flow cytometry with anti-6×His-PE
Experimental: FIG. 19 presents experimental results as a flow cytometry histogram. Mouse erythrocytes were incubated with TER119-SIINFEKL (grey filled histogram) or albumin (empty histogram). Fluorescent signal comes from the anti-6×His-PE antibody used in detection of the scFv.

[9] = system: mouse erythrocytes (glycophorin-A on the erythrocyte surface); test: Binding of OVA conjugates to erythrocytes in vitro, flow cytometry, equilibrium binding
Excerpt: To obtain strong and specific biophysical binding of an antigen to erythrocytes, we used a synthetic 12 amino acid peptide (ERY1) that we discovered by phage display to specifically bind to mouse glycophorin-A (Kontos and Hubbell, 2010). In this investigation, the model antigen OVA was used with a transgenic mouse strain (OT-I) whose CD8^+ T cell population expresses the T cell receptor specific for the MHC I immunodominant OVA peptide SIINFEKL (SEQ ID NO:3). The ERY1 peptide was chemically conjugated to OVA to create an OVA variant (ERY1-OVA) that binds mouse erythrocytes with high affinity and specificity (FIG. 8a). High-resolution confocal microscopy confirmed earlier observations concerning ERY1 binding (Kontos and Hubbell, 2010), namely localization to the cell membrane equatorial periphery, with no intracellular translocation of the ERY1-conjugated protein.

[10] = system: erythrocytes (CD45−); test: In vivo binding to circulating erythrocytes after intravenous administration; set-up: species or system mouse
Experimental: 150 μg of ERY1-OVA or OVA in 0.9% saline (B. Braun) in a volume of 100 μL was injected intravenously into the tail of 8-12 week old female C57BL/6 mice while under anesthesia with isoflurane. […] At predetermined time points, 5 μL of blood was taken from a small incision on the tail, diluted 100-fold into 10 mM EDTA in PBS, washed three times with PBS with 10 mg/mL BSA, and analyzed for OVA content by flow cytometry and ELISA. OVA was quantified by sandwich ELISA, using a mouse monoclonal anti-OVA antibody (Sigma) for capture, a polyclonal rabbit anti-OVA antibody (AbD SEROTEC) for detection, a goat anti-rabbit-IgG-HRP antibody (BioRad) for final detection, followed by TMB substrate (GE Life Sciences). Hematological characterization was performed on an ADVIVA 2120 Hematology System (Siemens). Erythrocyte-bound ERY1-GST was detected by incubating labeled cells with goat anti-GST (GE Healthcare Life Sciences), followed by incubation with AlexaFluor488 donkey anti-goat (Invitrogen), and analyzed by flow cytometry. For biodistribution studies, 20 μg of ERY1-APC or MIS-APC was injected intravenously into the tail vein of 8-12 week old female C57BL/6 mice as described above. Mice were sacrificed at predetermined time points, and the spleen, blood, and liver were removed. […]

[11] = following challenge with OVA and LPS
[12] = i.v. 1 and 6 days after adoptive transfer, 4 d after OVA/LPS challenge

GQSGQTYFCTPTLLGQYCSVGSSGGS (Erythrocyte Binding Peptide) [ERY64]
binding to human erythrocytes as conjugates of APC [1]: bound to human erythrocytes | binding to human erythrocytes, specificity as compared to 293T cells and HUVECs [2]: bound specifically to human erythrocytes

GQSGHWHCQGPFANWVGSSGGS (Erythrocyte Binding Peptide) [ERY123]
binding to human erythrocytes as conjugates of APC [1]: bound to human erythrocytes | binding to human erythrocytes, specificity as compared to 293T cells and HUVECs [2]: bound specifically to human erythrocytes

GQSGQFCTVIYNTYTCVPSSGSSGGS (Erythrocyte Binding Peptide) [ERY141]
binding to human erythrocytes as conjugates of APC [1]: bound to human erythrocytes | binding to human erythrocytes, specificity as compared to 293T cells and HUVECs [2]: bound specifically to human erythrocytes

WMVLPWLPGTLD (not fully specified (C-terminus)) [ERY1, synthesized as H2N-…-CONH2]
molecular target on the erythrocyte membrane / conjugation to erythrocyte proteins [3]: glycophorin-A (GYPA)

8-arm PEG-MIS: 8-arm PEG conjugate harboring the non-specific MIS peptide (H-PLLTVGMDLWPWGGSGC(8‑arm PEG)RG-NH2; also: 8-arm PEG conjugate (multivalent), linkage to PEG not given here) [reference compound]
binding to circulating erythrocytes upon intravenous injection [4]: not

maltose binding protein [wild-type MBP]
half-life [5]: 55.2 min | α half life [5]: 24.6 min | β half life [5]: 66.6 min

GQSGQPNSRWIYMTPLSPGIYRGSSGGS (Erythrocyte Binding Peptide) [ERY19]
binding to human erythrocytes, specificity as compared to 293T cells and HUVECs [2]: bound specifically to human erythrocytes

GQSGQYICTSAGFGEYCFIDGSSGGS (Erythrocyte Binding Peptide) [ERY59]
binding to human erythrocytes, specificity as compared to 293T cells and HUVECs [2]: bound specifically to human erythrocytes

GQSGQSVWYSSRGNPLRCTGGSSGGS (Erythrocyte Binding Peptide) [ERY162]
binding to human erythrocytes, specificity as compared to 293T cells and HUVECs [2]: bound specifically to human erythrocytes

PLLTVGMDLWPW (Control peptide) [mismatch peptide, same amino acid residues as ERY1, scrambled, reference compound]
molecular target on the erythrocyte membrane / conjugation to erythrocyte proteins [3]: failed to conjugate to any erythrocyte proteins

TER119-SIINFEKL: recombinant fusion of scFv TER119 to the MHC-I immunodominant domain of OVA (SGLEQLESIINFEKL; epitope)
fewer IFNγ-expressing cells in lymph nodes compared to challenge control mice [6, 11]: 33 fold | fewer IFNγ-expressing cells in lymph nodes compared to mice treated with an equivalent dose of OVA [6, 11]: over 14 fold | fewer OT-I CD8+ T cells in draining lymph nodes as compared to OVA-treated mice [6, 12]: over 13 fold | fewer OT-I CD8+ T cells in draining lymph nodes than challenge control mice [6, 12]: over 42 fold | PD-1+ proliferating OT-I CD8+ T cells compared to OVA ([7]; 10 μg or equimolar dose): much higher numbers | annexin-V+ proliferating OT-I CD8+ T cells compared to OVA ([7]; 10 μg or equimolar dose): much higher numbers | OT-I CD8+ T cell proliferation (CFSE dilution) compared to ERY1-OVA or OVA ([7]; spleen, 5 days, dose equimolar to 10 μg OVA): markedly enhanced | binding to mouse erythrocytes [8]: bound mouse erythrocytes

B1: OVA conjugated with only the crosslinking molecule: OVA carrying only the SMCC crosslinker (conjugate)
chain: GSIGAASMEFCFDVFKELKVHHANENIFYCPIAIMSALAMVYLGAKDSTRTQINKVVRFDKLPGFGDSIEAQCGTSVNVHSSLRDILNQITKPNDVYSFSLASRLYAEERYPILPEYLQCVKELYRGGLEPINFQTAADQARELINSWVESQTNGIIRNVLQPSSVDSQTAMVLVNAIVFKGLWEKAFKDEDTQAMPFRVTEQESKPVQMMYQIGLFRVASMASEKMKILELPFASGTMSMLVLLPDEVSGLEQLESIINFEKLTEWTSSNVMEERKIKVYLPRMKMEEKYNLTSVLMAMGITDVFSSSANLSGISSAESLKISQAVHAAHAEINEAGREVVGSAEAGVDAASVSEEFRADHPFLFCIKHIATNAVLFFGRCVSP
binding to erythrocytes (flow cytometry) [9]: did not display any measureable affinity

B2: ovalbumin (protein)
chain: B1 chain
notes: model antigen
binding to circulating eryptotic (annexin-V+) and healthy (annexin-V−) erythrocytes [10]: nonbinding
